# Data as given in US20060088496A1, “Personal care compositions with salts of hydroxypropyl trialkylammonium substituted mono-saccharide” (Unilever Home & Personal Care USA, Division of Conopco, Inc., priority 2004, published 2006).
# System: Porcine epidermis
# Assay: moisturization efficacy test: weight change of porcine skin with relative humidity on an environmental microbalance
# Conditions: difference in percent weight change, treated minus untreated skin, 1% active material in water solution; for From 0 to 80 to 20% Relative Humidity: 90 minutes at 20% relative humidity after 80% (water retained); for From 0 through 80% Relative Humidity: 90 minutes at 80% relative humidity (water picked up)
# Description: This Example provides the results of moisturization efficacy tests. These tests involved evaluation on Porcine epidermis utilized as a human skin model. Equipment and protocol are outlined below. An environmental microbalance (Model MB-300W, VTI Corp., 2708 W 84th Street, Hialeah, Fla. 33016) was programmed to measure the change in weight of porcine skin as a function of relative humidity at a constant temperature and air flow. The porcine skin was evaluated before and after treatment with aqueous solutions of humectants to determine adsorption and retention of moisture. Sample preparation was done as follows: • Epidermal sections of porcine skin were cut to approximately 4 cm×1 cm. • The skin was washed in a 10% detergent solution and dried in a dessicator to a constant weight. This represents the Untreated material. • The skin was soaked in a 1% by weight aqueous solution of the test sample for 15 minutes, excess fluid was blotted off and the skin was dried to constant weight in a dessicator. This represents the Treated material. Sequence of conditions for the microbalance was as follows: • 30 minutes at 0% relative humidity. (Insures that sample is dry.) • 90 minutes at 80% relative humidity. […] (Determines amount of water retained.) The experiments were conducted as follows: • The weight of a piece of untreated skin was recorded continuously during the sequence. • The piece of untreated skin was treated with the test sample. • The weight of the treated piece of skin was recorded continuously during the sequence. • Data reduction consisted of calculating the percent weight change from the initial weight for the untreated and treated pieces of skin. The reported data was the difference between each treated piece and its corresponding untreated piece.
Structure (SMILES),From 0 to 80 to 20% Relative Humidity,From 0 through 80% Relative Humidity
"C[N+](C)(C)CC(O)CCl.[Cl-] (stereo not shown) [Quat ® 188, 3-chloro-2-hydroxypropyl trimethylammonium chloride]",0.10,0.21
OCC(O)CO [Glycerin],0.10,0.21
